From US20040024024A1, “Aromatic sulfone hydroxamates and their use as protease inhibitors” (priority 2001, published 2004) come the findings set out here.

Common to all, as to assay: In vitro MMP inhibition, IC50 determination (fluorogenic substrate I)
What all share (format): biochemical
Common to all, as to details: value outside parentheses (Ki in parenthesis)

In one assay the target is T1, Human recombinant MMP-2 (Homo sapiens, UniProt P08253).
T1 construct: made in house; host or cells: MMP-2-transfected p2AHT2 cells
T1 sequence (P08253 110-660): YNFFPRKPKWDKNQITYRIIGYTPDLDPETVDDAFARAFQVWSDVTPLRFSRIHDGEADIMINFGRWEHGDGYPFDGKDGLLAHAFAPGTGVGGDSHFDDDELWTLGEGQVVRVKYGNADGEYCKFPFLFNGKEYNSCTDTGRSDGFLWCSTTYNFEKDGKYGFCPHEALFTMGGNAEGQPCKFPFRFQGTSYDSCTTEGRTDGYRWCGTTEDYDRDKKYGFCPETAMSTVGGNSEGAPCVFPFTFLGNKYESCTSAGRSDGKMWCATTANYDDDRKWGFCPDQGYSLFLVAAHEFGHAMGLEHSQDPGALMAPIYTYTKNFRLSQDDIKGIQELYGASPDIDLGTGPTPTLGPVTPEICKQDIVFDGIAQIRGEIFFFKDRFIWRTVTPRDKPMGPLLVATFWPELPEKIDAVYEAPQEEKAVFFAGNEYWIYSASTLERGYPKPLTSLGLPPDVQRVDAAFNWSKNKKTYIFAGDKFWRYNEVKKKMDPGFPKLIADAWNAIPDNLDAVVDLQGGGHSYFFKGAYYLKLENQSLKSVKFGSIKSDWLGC
A digest of the protocol:
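APMA- or trypsin-activated recombinant MMP-2 was incubated at room temperature with serial inhibitor dilutions in Tris buffer pH 7.5 (100 mM NaCl, 10 mM CaCl2, 0.05% Brij), with DMSO from 1% stocks, and 4 μM substrate I. Cleavage was read by fluorescence at 328/415 nm; IC50 was taken from the loss of fluorescence versus inhibitor concentration.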

In another assay the target is T2, Human recombinant MMP-1 (Homo sapiens, UniProt P03956).
T2 construct: made in house; host or cells: MMP-1-transfected HT-1080 cells (spent media)
T2 sequence (P03956 100-469): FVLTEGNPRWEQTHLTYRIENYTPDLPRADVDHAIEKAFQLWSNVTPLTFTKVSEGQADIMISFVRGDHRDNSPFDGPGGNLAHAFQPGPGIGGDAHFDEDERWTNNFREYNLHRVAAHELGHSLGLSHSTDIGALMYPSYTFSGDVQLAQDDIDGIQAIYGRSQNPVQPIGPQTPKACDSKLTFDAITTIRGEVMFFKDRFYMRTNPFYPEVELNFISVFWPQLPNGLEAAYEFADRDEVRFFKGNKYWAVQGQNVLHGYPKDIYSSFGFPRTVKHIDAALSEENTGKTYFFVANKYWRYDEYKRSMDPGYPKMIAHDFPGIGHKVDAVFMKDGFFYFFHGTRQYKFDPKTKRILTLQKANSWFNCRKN
A digest of the protocol:
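APMA- or trypsin-activated enzyme, purified from spent media of transfected HT-1080 cells, incubated at room temperature with 4 μM MCA-Pro-Leu-Gly-Leu-Dpa-Ala-Arg-NH2 and graded inhibitor in Tris buffer pH 7.5 (10 mM CaCl2, 0.05% Brij). Cleavage read by fluorescence (ex 328/em 415 nm); IC50 from fluorescence reduction versus inhibitor concentration.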

For a further assay, the target named is T3, Human recombinant MMP-13 (Homo sapiens, UniProt P45452).
T3 construct: made in house; host or cells: baculovirus / insect cells
A digest of the protocol: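 Fluorescence at 415 nm (excitation 328 nm) reports Gly-Leu cleavage of 4 μM quenched methoxycoumarin peptide substrate I. Human recombinant MMP-13, activated by trypsin or APMA, was incubated at room temperature with varied inhibitor concentrations in pH 7.5 Tris/NaCl/CaCl2 buffer; IC50 derived from reduced fluorescence.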

The next assay concerns the target T4, Human recombinant MMP-14 (Homo sapiens, UniProt P50281).
T4 construct: The catalytic domain enzyme was expressed in E. coli inclusion bodies, solubilized in urea; made in house
A digest of the protocol: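 Catalytic-domain MMP-14, expressed in E. coli and refolded, activated with APMA or trypsin; compounds incubated at room temperature with 4 μM fluorogenic substrate I (MCA-PLGL-Dpa-AR-NH2) in Tris/NaCl/CaCl2 buffer, pH 7.5. Fluorescence at ex 328/em 415 nm; IC50 from loss of fluorescence versus inhibitor concentration.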

In another assay the target is T5, Human recombinant MMP-9 (Homo sapiens, UniProt P14780).
T5 construct: made in house; host or cells: MMP-9-transfected HT1080 cells (spent media)
T5 sequence (P14780 107-707 limits assumed): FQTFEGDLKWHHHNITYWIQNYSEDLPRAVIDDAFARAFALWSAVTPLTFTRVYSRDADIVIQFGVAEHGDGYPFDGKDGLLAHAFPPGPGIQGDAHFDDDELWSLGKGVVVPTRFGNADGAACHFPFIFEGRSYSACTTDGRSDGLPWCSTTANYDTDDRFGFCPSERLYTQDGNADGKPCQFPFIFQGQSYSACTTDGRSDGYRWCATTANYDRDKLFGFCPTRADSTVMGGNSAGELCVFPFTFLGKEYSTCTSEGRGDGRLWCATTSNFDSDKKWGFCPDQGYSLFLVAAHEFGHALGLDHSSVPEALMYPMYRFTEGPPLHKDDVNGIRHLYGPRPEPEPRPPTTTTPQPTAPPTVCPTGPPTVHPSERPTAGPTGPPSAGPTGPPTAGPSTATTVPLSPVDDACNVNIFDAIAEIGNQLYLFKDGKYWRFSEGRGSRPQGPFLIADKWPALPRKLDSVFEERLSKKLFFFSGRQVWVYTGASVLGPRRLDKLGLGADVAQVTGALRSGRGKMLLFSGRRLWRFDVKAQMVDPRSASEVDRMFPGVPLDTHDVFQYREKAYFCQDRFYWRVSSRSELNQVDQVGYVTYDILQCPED
A digest of the protocol:
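MMP-9 proenzyme purified from transfected HT1080 cell media, activated with APMA or trypsin. Compound dilutions in pH 7.5 Tris/NaCl/CaCl2 buffer with 0.05% polyoxyethylene 23 lauryl ether, incubated at room temperature with 4 μM MCA/Dpa substrate I. IC50 from fluorescence loss (ex 328, em 415 nm) versus inhibitor concentration.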

Regarding `O=C(NCCCOc1ccc(S(=O)(=O)C2(C(=O)NO)CCOCC2)cc1)c1cc2ccccc2cc1O` [Example 376], the IC50 (usually the concentration that gives 50% inhibition) at Human recombinant MMP-2 is 360 nM; on Human recombinant MMP-1, above 10000 nM; on Human recombinant MMP-13 it was 0.8 nM; on Human recombinant MMP-14, above 10000 nM; at Human recombinant MMP-9, above 10000 nM.
Turning to `O=C(NCCCOc1ccc(S(=O)(=O)C2(C(=O)NO)CCOCC2)cc1)c1cnc(Cl)c(Cl)c1` [Example 384], the IC50 at Human recombinant MMP-2 is 176 nM; on Human recombinant MMP-1, above 10000 nM; on Human recombinant MMP-13 it was 0.8 nM; on Human recombinant MMP-14 it was above 10000 nM; on Human recombinant MMP-9, 2630 nM.
Take `O=C(NCCCOc1ccc(S(=O)(=O)C2(C(=O)NO)CCOCC2)cc1)c1cccnc1` [Example 385]: the IC50 is 253 nM on Human recombinant MMP-2; 4340 nM at Human recombinant MMP-1; 3.3 nM on Human recombinant MMP-13; above 10000 nM at Human recombinant MMP-14; above 10000 nM at Human recombinant MMP-9.
As to `Cc1cc(C(=O)NCCCOc2ccc(S(=O)(=O)C3(C(=O)NO)CCOCC3)cc2)no1` [Example 386], the IC50 on Human recombinant MMP-2 was 131 nM; at Human recombinant MMP-1 it was above 10000 nM; at Human recombinant MMP-13, 1.2 nM; on Human recombinant MMP-14, 9720 nM; at Human recombinant MMP-9, 35.3 nM.
Consider `O=C(NCCCOc1ccc(S(=O)(=O)C2(C(=O)NO)CCOCC2)cc1)c1cnc2ccccc2c1` [Example 390], for which the IC50 was 907 nM on Human recombinant MMP-2; above 10000 nM at Human recombinant MMP-1; 2.7 nM at Human recombinant MMP-13; above 10000 nM at Human recombinant MMP-14; above 10000 nM on Human recombinant MMP-9.
On to `COc1ccc(C(=O)NCC(C)(C)COc2ccc(S(=O)(=O)C3(C(=O)NO)CCOCC3)cc2)cc1` [Example 392], for which the IC50 on Human recombinant MMP-2 was above 10000 nM; on Human recombinant MMP-1 it was above 10000 nM; on Human recombinant MMP-13, 40 nM; on Human recombinant MMP-14, above 10000 nM; on Human recombinant MMP-9, above 10000 nM.
On to `CCCC(C)C(=O)NCCCOc1ccc(S(=O)(=O)C2(C(=O)NO)CCOCC2)cc1` (stereo not shown) [Example 403], for which the 50% inhibitory concentration (IC50) at Human recombinant MMP-2 is 454 nM; on Human recombinant MMP-1 it was above 10000 nM; on Human recombinant MMP-13, 5.2 nM; on Human recombinant MMP-14, above 10000 nM; on Human recombinant MMP-9 it was above 10000 nM.
Consider `O=C(NCCCOc1ccc(S(=O)(=O)C2(C(=O)NO)CCOCC2)cc1)C12CC3CC(CC(C3)C1)C2` [Example 405], for which the concentration for half-maximal inhibition (IC50) is 2350 nM at Human recombinant MMP-2; above 10000 nM on Human recombinant MMP-1; 1.9 nM on Human recombinant MMP-13; above 10000 nM at Human recombinant MMP-14; above 10000 nM at Human recombinant MMP-9.
With `CN(C)c1ccc(C(=O)NCCCOc2ccc(S(=O)(=O)C3(C(=O)NO)CCN(C4CC4)CC3)cc2)cc1` [Example 406], the IC50 at Human recombinant MMP-2 is 2200 nM; on Human recombinant MMP-1, above 10000 nM; on Human recombinant MMP-13 it was 4 nM; on Human recombinant MMP-14, above 10000 nM; on Human recombinant MMP-9 it was above 10000 nM.
As for `O=C(NO)C1(S(=O)(=O)c2ccc(OCCCSc3nc4ccc(Cl)cc4o3)cc2)CCOCC1` [Example 408], the IC50 was 90 nM on Human recombinant MMP-2; above 10000 nM at Human recombinant MMP-1; 2.5 nM at Human recombinant MMP-13; 6810 nM at Human recombinant MMP-14; 49 nM on Human recombinant MMP-9.
For `O=C(NO)C1(S(=O)(=O)c2ccc(OCCSc3nc4c(Cl)cc(Cl)cc4o3)cc2)CCOCC1` [Example 409], in that order: 23 nM, above 10000 nM, 1 nM, 5640 nM and 160 nM.
For `O=C(NO)C1(S(=O)(=O)c2ccc(OCCSc3nc4ccccc4o3)cc2)CCOCC1` [Example 410], the IC50 on Human recombinant MMP-2 stood at 12 nM; at Human recombinant MMP-1, 4700 nM; at Human recombinant MMP-13, 1.1 nM; at Human recombinant MMP-14, 515 nM; at Human recombinant MMP-9, 202 nM.
Regarding `Cc1ccc2c(c1)CCCN2CCCCCOc1ccc(S(=O)(=O)C2(C(=O)NO)CCOCC2)cc1` [Example 415], the IC50 on Human recombinant MMP-2 is 51 nM; at Human recombinant MMP-1 it was above 10000 nM; on Human recombinant MMP-13, 15 nM; at Human recombinant MMP-14, above 10000 nM; at Human recombinant MMP-9, 1780 nM.
Turning to `COc1ccc(NC(=O)NCCOc2ccc(S(=O)(=O)C3(C(=O)NO)CCOCC3)cc2)cc1` [Example 418], the IC50 at Human recombinant MMP-2 is 1500 nM; at Human recombinant MMP-1, above 10000 nM; on Human recombinant MMP-13 it was 64 nM; at Human recombinant MMP-14, above 10000 nM; at Human recombinant MMP-9 it was above 10000 nM.
Take `COc1ccc(C(=O)N2CCC(COc3ccc(S(=O)(=O)C4(C(=O)NO)CCOCC4)cc3)CC2)cc1` [Example 420]: the concentration for half-maximal inhibition (IC50) on Human recombinant MMP-2 is 67 nM; at Human recombinant MMP-1 it was above 10000 nM; on Human recombinant MMP-13 it was 4 nM; at Human recombinant MMP-14 it was above 10000 nM; on Human recombinant MMP-9, above 10000 nM.
Regarding `CC(C)(COc1ccc(S(=O)(=O)C2(C(=O)NO)CCOCC2)cc1)CSc1ccccc1` [Example 437], the IC50 is above 10000 nM on Human recombinant MMP-2; above 10000 nM on Human recombinant MMP-1; 90 nM at Human recombinant MMP-13; above 10000 nM on Human recombinant MMP-14; above 10000 nM on Human recombinant MMP-9.
Turning to `CC(C)(COc1ccc(S(=O)(=O)C2(C(=O)NO)CCOCC2)cc1)CS(=O)(=O)Cc1ccccc1` [Example 438], the IC50 on Human recombinant MMP-2 is 505 nM; on Human recombinant MMP-1, above 10000 nM; on Human recombinant MMP-13, 11 nM; on Human recombinant MMP-14 it was above 10000 nM; on Human recombinant MMP-9 it was 3800 nM.
With `O=C(NO)C1(S(=O)(=O)c2ccc(OCCCSCc3ccccc3)cc2)CCOCC1` [Example 439], the IC50 on Human recombinant MMP-2 was 2000 nM; at Human recombinant MMP-1 it was above 10000 nM; on Human recombinant MMP-13, 25 nM; on Human recombinant MMP-14, above 10000 nM; on Human recombinant MMP-9, 6000 nM.
For `CC(C)(COc1ccc(S(=O)(=O)C2(C(=O)NO)CCOCC2)cc1)CS(=O)(=O)Cc1cccc(OC(F)(F)F)c1` [Example 440], the IC50 was 4 nM at Human recombinant MMP-2; above 10000 nM on Human recombinant MMP-1; 1 nM on Human recombinant MMP-13; 2500 nM at Human recombinant MMP-14; 140 nM at Human recombinant MMP-9.
Taken in the same sequence, the figures for `O=C(NO)C1(S(=O)(=O)c2ccc(OCCCSCc3cccc(OC(F)(F)F)c3)cc2)CCOCC1` [Example 441] were 13 nM, 9000 nM, 2 nM, 2290 nM and 110 nM.
With `COc1ccc(OCCCOc2ccc(S(=O)(=O)C3(C(=O)NO)CCN(C4CC4)CC3)cc2)cc1` [Example 442], the IC50 at Human recombinant MMP-2 is 6.2 nM; on Human recombinant MMP-1, above 10000 nM; at Human recombinant MMP-13 it was 1.8 nM; on Human recombinant MMP-14, 997 nM; at Human recombinant MMP-9, 5.4 nM.
`O=C(NO)C1(S(=O)(=O)c2ccc(OCCCOc3cccc(C(F)(F)F)c3)cc2)CCN(C2CC2)CC1` [Example 443]: the IC50 on Human recombinant MMP-2 is 25 nM; at Human recombinant MMP-1 it was above 10000 nM; at Human recombinant MMP-13, 3.5 nM; on Human recombinant MMP-14, 2430 nM; on Human recombinant MMP-9, 375 nM.
For `O=C(NO)C1(S(=O)(=O)c2ccc(OCCCOc3ccc(F)cc3F)cc2)CCOCC1` [Example 445], in that order: 2.2 nM, 3320 nM, 0.5 nM, 546 nM and 44 nM.
